{"source": "paper PMC7503713", "about": "“GANT61 Reduces Hedgehog Molecule (GLI1) Expression and Promotes Apoptosis in Metastatic Oral Squamous Cell Carcinoma Cells” (International Journal of Molecular Sciences, 2020)", "assay_type_in_all_cases": "cell-based, human", "key": {"[1]": {"tested_on": "SCC4", "test": "alamarBlue cytotoxicity assay, SCC4", "details": "72 h of incubation", "protocol": "(§1) To assess the cytotoxicity of the GLI inhibitor GANT61 (Sigma-Aldrich, St. Louis, MO, USA) in tumor and non-tumor cell lines, an alamarBlue assay (Sigma-Aldrich Chemical Co, St. Louis, MO, USA) was performed after 72 h of exposure to the inhibitor, as described by Ahmed et al., 1994 [46]. Cells were distributed on 96-well plates at a density of 7 × 10^4 cells/mL for adhered cells, and 3 × 10^5 cells/mL for cells in suspension. All tested compounds were dissolved in DMSO, added to wells containing 100 µL of cells in complete medium, and then incubated for 72 h. Eight concentrations of GANT61 (0.19 to 50 µg/mL), Doxorubicin (Laboratory IMA S.A.I.C., Buenos Aires, Argentina), and 5-Fluorouracil (5-FU, Sigma-Aldrich, St. Louis, MO, USA), both used as positive controls at concentrations ranging from 0.03 to 5 µg/mL, were added to respective wells. […] Absorbance was measured at 570 nm (reduced) and 595 nm (oxidized) wavelengths, using a Spectramax 190 plate reader (Molecular Devices; Sunnyvale, CA, USA).\n(§2) Statistical analyses were performed, using GraphPad Prism v. […] Data were analyzed according to distribution along the normal Gaussian curve. […] Differences between groups resulting from in vitro assays were evaluated by ANOVA (analysis of variance) testing, followed by the Student–Newman–Keuls test. […]"}, "[2]": {"tested_on": "HL60", "test": "alamarBlue cytotoxicity assay, HL60", "details": "72 h of incubation", "protocol": "as §1, §2"}, "[3]": {"tested_on": "AGP01", "test": "alamarBlue cytotoxicity assay, AGP01", "details": "72 h of incubation", "protocol": "as §1, §2"}, "[4]": {"tested_on": "APC02", "test": "alamarBlue cytotoxicity assay, APC02", "details": "72 h of incubation", "protocol": "as §1, §2"}, "[5]": {"tested_on": "APC03", "test": "alamarBlue cytotoxicity assay, APC03", "details": "72 h of incubation", "protocol": "as §1, §2"}, "[6]": {"tested_on": "GLI2 mRNA", "test": "qPCR of HH pathway gene expression in HSC3 cells, GLI2", "details": "HSC3, 18 and 36 µM, 12 h, not significant", "protocol": "For total RNA isolation, HSC3 cells were plated on 6-well plates, at a density of 0.7 × 10^5 cells/mL (5 mL/well volume), and incubated overnight, followed by treatment with the GLI inhibitor for 12 h at both concentrations (18 and 36 µM).\nAll experiments were carried out under DNAse/RNAse-free conditions. Silica microcolumns were used for RNA extraction, using an RNeasy Plus Mini Kit (QIAGEN, Hilden, Germany). Extracted RNA was analyzed for quantity and purity, using a NanoDrop®® 1000 spectrophotometer (Thermo Fisher Scientific, Waltham, MA, USA).\nReverse transcription was performed by using Superscript VILO™ transcriptase enzyme (Invitrogen, Carlsbad, CA, USA). The cDNA samples were stored at −20 °C, until the time of use.\nHH pathway component expression was evaluated in cells treated or not with GANT61 by qPCR, using TaqMan Gene Expression Assays^TM inventoried for the PTCH1 (Hs00181117_m1), GLI1 (Hs01110766_m1), GLI2 (Hs01119974_m1), and GLI3 (Hs00609233_m1) genes, as well as for B2 M (Hs99999907_m1). […]\nFollowing amplification and dissociation runs, quantification cycle (Cq) values were obtained by using the ViiA7^TM System Operational Program (AppliedByosistems, Foster City, CA, USA). For relative quantification, the comparative method (2−∆∆Cq) described by Livak and Schmittgen, 2001 was used. […]"}, "[7]": {"tested_on": "SHH protein", "test": "Western blot of HH pathway proteins in HSC3 cells, SHH", "details": "HSC3, 18 and 36 µM, 24 h", "protocol": "After culturing, HSC3 cells were washed with PBS and denatured by using cell lysis buffer containing 50 mM Tris-HCl (pH 7.4), 1% Triton X-100, 150 mM NaCl, 0.5 mM EGTA, 0.5 EDTA mM, and an anti-protease cocktail (Complete Pro-inhibitor Cocktail Tablets, Roche, Basel, Switzerland). Protein extracts (50 μg) were separated by SDS-PAGE and transferred to Hybond-C Extra (GE Healthcare, Chicago, IL, USA) nitrocellulose membranes. The following antibodies were used in the Western blot assay: mouse […] against Sonic Hedgehog (1:500, Clone 5 H4, Cat. number NBP2-22126, Novus Biologicals, Centennial, CO, USA), rabbit polyclonal against Gli1 (1:500, Novus Biologicals, Cat. number NB600-600), rabbit polyclonal against Patched 1 (1:500, Novus Biologicals, Cat.number NB200-118), and rabbit polyclonal against Smoothened (1:1000, Cat. number AB72130, Abcam, Cambridge, MA, USA). The secondary antibodies were anti-mouse IgG (1:10,000, Santa Cruz Biotechnology, Santa Cruz, CA, USA) and anti-rabbit IgG (1:10,000, GE Healthcare, Chicago, IL, USA). Signal detection was performed by using an ECL + Chemiluminescence Detection System (PerkinElmer, Villebon sur-Yvette, France). The antibody actin (1:10000, Cat. Number15 G5 A11/E2, Invitrogen, Carlsbad, CA, USA) was selected as an endogenous control for analysis of HH pathway component expression in HSC3 cells. […]"}}}
{"smiles": "CN(C)c1ccccc1CN1CCCN(Cc2ccccc2N(C)C)C1c1ccncc1", "note": "[GANT61]", "values": [{"measurement": "IC50", "setting": "[1]", "result": 111, "unit": "µM"}, {"measurement": "IC50", "setting": "[2]", "result": "> 116", "unit": "µM"}, {"measurement": "IC50", "setting": "[3]", "result": "> 116", "unit": "µM"}, {"measurement": "IC50", "setting": "[4]", "result": "> 116", "unit": "µM"}, {"measurement": "IC50", "setting": "[5]", "result": "> 116", "unit": "µM"}, {"measurement": "mRNA expression of GLI2", "setting": "[6]", "result": "Reductions in mRNA expression"}, {"measurement": "SHH protein expression", "setting": "[7]", "result": "reduced levels"}]}
